Read-outs that look alike come from different tables or passages of the source.
Legend:
[1] = tested on: antibodies in serum of cattle infected with M. avium paratuberculosis (MAP); assay type: binding; details: serum 1:20, IgG Fc secondary antibody, average of four replicates
[2] = tested on: antibodies in serum of cattle known not to be infected; assay type: binding
[3] = tested on: antibodies in serum of cattle infected with bovine M. tuberculosis (B tb); assay: ELISA assay of antibody binding to antigen, serum of cattle naturally infected with bovine TB
Method: The binding of antibodies in serum of cattle infected with M. tuberculosis or M. avium with the antigens detailed in example 3 was measured in an ELISA assay.
ELISA assays were carried out as known to those practiced in the art using 96 well plates. In the first procedure, the ELISA assay was carried out on 96-well microplates and the purified antigens were dissolved in n-hexane at a concentration of 62.5 μg/ml. The antigen solutions were diluted and 50 μl and placed in each well. The plates were left to dry at room temperature overnight. Blocking was done with 0.5% casein/PBS (400 μl/well) and the plates are left to incubate at 25° C. for 1 h. The casein was aspirated using the LT-3500 plate washer and the plates flicked dry. Then the serum (1:20 dilution in 0.5% casein/PBS, pH 7.4) was added to the plate (50 μl/well) and left to incubate at 25° C. for 1 h. The serum was aspirated and washed three times with (casein/PBS, 400 μl/well) using the same plate washer and the plates were flicked dry again. After that, the secondary antibody, in the example given IgG Fc (1:1000 dilution in 0.5% casein/PBS) was added to the plate (50 μl/well) and the plates were left to incubate at 25° C. for 30 min. The plates were washed three times again with (casein/PBS, 400 μl/well) and dried. Then, the OPD substrate was added to the plates, which were left to incubate at 25° C. for 30 min. Finally, 2.5 M H2SO4 (50 μl/well) was added and the absorbances of each well were read at 492, 450 and 630 nm using an LT-4000 plate reader.
Serum used in this work was obtained from cattle infected with MAP, diagnosed as naturally infected with bovine TB, or known not to be infected using standard assays.
All measurements were taken as four replicates unless otherwise stated. These were averaged to provide the data in the table which are optical density measurements at 492 nm.

[4] = serum MAP (experimentally infected)
[5] = VLA (Non-vaccinates) serum sample 21
[6] = VLA (Non-vaccinates) serum sample 22
[7] = VLA (Non-vaccinates) serum sample 23
[8] = VLA (Non-vaccinates) serum sample 24
[9] = VLA (Non-vaccinates) serum sample 25
[10] = VLA (Non-vaccinates) serum sample 26
[11] = VLA (Non-vaccinates) serum sample 27
[12] = VLA (Non-vaccinates) serum sample 28
[13] = VLA (Non-vaccinates) serum sample 29
[14] = VLA (Non-vaccinates) serum sample 30
[15] = VLA (Non-vaccinates) serum sample 31
[16] = VLA (Non-vaccinates) serum sample 32
[17] = VLA (Non-vaccinates) serum sample 33
[18] = VLA (Non-vaccinates) serum sample 34
[19] = VLA (Non-vaccinates) serum sample 35
[20] = VLA (Non-vaccinates) serum sample 36
[21] = VLA (Naturally infected) bovis serum sample 1
[22] = VLA (Naturally infected) bovis serum sample 2
[23] = VLA (Naturally infected) bovis serum sample 3
[24] = VLA (Naturally infected) bovis serum sample 4
[25] = VLA (Naturally infected) bovis serum sample 5
[26] = VLA (Naturally infected) bovis serum sample 6
[27] = VLA (Naturally infected) bovis serum sample 7
[28] = VLA (Naturally infected) bovis serum sample 8
[29] = VLA (Naturally infected) bovis serum sample 9
[30] = VLA (Naturally infected) bovis serum sample 10
[31] = VLA (Naturally infected) bovis serum sample 11
[32] = VLA (Naturally infected) bovis serum sample 12
[33] = VLA (Naturally infected) bovis serum sample 13
[34] = VLA (Naturally infected) bovis serum sample 14
[35] = VLA (Naturally infected) bovis serum sample 15
[36] = VLA (Naturally infected) bovis serum sample 16
[37] = VLA (Naturally infected) bovis serum sample 17
[38] = VLA (Naturally infected) bovis serum sample 18
[39] = VLA (Naturally infected) bovis serum sample 19
[40] = VLA (Naturally infected) bovis serum sample 20

Row | SMILES | optical density measurements at 492 nm ([1]; serum MAP (Naturally infected)) | optical density measurements at 492 nm [1, 4] | optical density measurements at 492 nm [2, 5] | optical density measurements at 492 nm [2, 6] | optical density measurements at 492 nm [2, 7] | optical density measurements at 492 nm [2, 8] | optical density measurements at 492 nm [2, 9] | optical density measurements at 492 nm [2, 10] | optical density measurements at 492 nm [2, 11] | optical density measurements at 492 nm [2, 12] | optical density measurements at 492 nm [2, 13] | optical density measurements at 492 nm [2, 14] | optical density measurements at 492 nm [2, 15] | optical density measurements at 492 nm [2, 16] | optical density measurements at 492 nm [2, 17] | optical density measurements at 492 nm [2, 18] | optical density measurements at 492 nm [2, 19] | optical density measurements at 492 nm [2, 20] | optical density measurements at 492 nm [3, 21] | optical density measurements at 492 nm [3, 22] | also measured
1 | CCCCCCCCCCCCCCCCCCCCCC[C@@H](C(=O)OCC1OC(OC2OC(COC(=O)[C@H](CCCCCCCCCCCCCCCCCCCCCC)[C@H](O)CCCCCCCCCCCCCCCC[C@H]3C[C@@H]3[C@@H](C)CCCCCCCCCCCCCCCCCCC(=O)O[C@@H](C)CCCCCCCCCCCCCCCCCC)C(O)C(O)C2O)C(O)C(O)C1O)[C@H](O)CCCCCCCCCCCCCCCC[C@H]1C[C@@H]1[C@@H](C)CCCCCCCCCCCCCCCCCCC(=O)O[C@@H](C)CCCCCCCCCCCCCCCCCC (stereo partly shown) [Antigen F] | 4.00 | 1.44 | 0.25 | 0.25 | 0.17 | 0.21 | 0.15 | 3.66 | 1.96 | 0.36 | 0.29 | 0.26 | 0.45 | 0.06 | 0.08 | 0.11 | 0.31 | 0.12 | 1.07 | 0.67 | optical density measurements at 492 nm [3, 23]: 2.47; optical density measurements at 492 nm [3, 24]: 0.67; optical density measurements at 492 nm [3, 25]: 0.29; optical density measurements at 492 nm [3, 26]: 0.18; optical density measurements at 492 nm [3, 27]: 0.51; optical density measurements at 492 nm [3, 28]: 2.23; optical density measurements at 492 nm [3, 29]: 0.18; optical density measurements at 492 nm [3, 30]: 0.24; optical density measurements at 492 nm [3, 31]: 0.31; optical density measurements at 492 nm [3, 32]: 1.08; optical density measurements at 492 nm [3, 33]: 0.66; optical density measurements at 492 nm [3, 34]: 0.23; optical density measurements at 492 nm [3, 35]: 0.12; optical density measurements at 492 nm [3, 36]: 0.62; optical density measurements at 492 nm [3, 37]: 0.47; optical density measurements at 492 nm [3, 38]: 0.52; optical density measurements at 492 nm [3, 39]: 0.69; optical density measurements at 492 nm [3, 40]: 1.08
2 | CCCCCCCCCCCCCCCCCCCCCC[C@@H](C(=O)OCC1OC(OC2OC(CO)C(O)C(O)C2O)C(O)C(O)C1O)[C@H](O)CCCCCCCCCCCCCCCC[C@H]1C[C@@H]1[C@@H](C)CCCCCCCCCCCCCCCCCCC(=O)O[C@@H](C)CCCCCCCCCCCCCCCCCC (stereo partly shown) [Antigen G] | 4.38 | 4.38 | 0.37 | 0.14 | 0.24 | 0.51 | 0.27 | 0.82 | 0.55 | 0.46 | 1.58 | 0.16 | 1.99 | 0.06 | 0.10 | 0.07 | 0.07 | 0.07 | 3.68 | 2.78 | optical density measurements at 492 nm [3, 23]: 4.06; optical density measurements at 492 nm [3, 24]: 0.63; optical density measurements at 492 nm [3, 25]: 1.04; optical density measurements at 492 nm [3, 26]: 0.88; optical density measurements at 492 nm [3, 27]: 2.34; optical density measurements at 492 nm [3, 28]: 1.39; optical density measurements at 492 nm [3, 29]: 0.40; optical density measurements at 492 nm [3, 30]: 0.52; optical density measurements at 492 nm [3, 31]: 1.63; optical density measurements at 492 nm [3, 32]: 1.54; optical density measurements at 492 nm [3, 33]: 0.26; optical density measurements at 492 nm [3, 34]: 0.22; optical density measurements at 492 nm [3, 35]: 0.15; optical density measurements at 492 nm [3, 36]: 0.15; optical density measurements at 492 nm [3, 37]: 0.11; optical density measurements at 492 nm [3, 38]: 0.27; optical density measurements at 492 nm [3, 39]: 0.11; optical density measurements at 492 nm [3, 40]: 1.54

Reference: patent publication US10782293B2, “Compositions and methods” (priority 2015, dated 2020)
